Laboratory results: ChEMBL document CHEMBL4840355, “Antitumor and toxicity study of mitochondria-targeted triptolide derivatives using triphenylphosphine (TPP+) as a carrier” (Bioorg Med Chem, 2021)
Calls of active or inactive are those of the source. The rule behind the calls is not given here.

How the values were obtained:
[1] = test system: NCI-H1299; test: Cytotoxicity against human NCI-H1299 cells assessed as inhibition of cell proliferation measured after 48 hrs by MTT assay; assay type: functional, cell-based; details: NCI-H1299, 48 h
[2] = Drug uptake in mitochondria of human HepG2 cells at 10 uM incubated for 7 hrs by RP-HPLC method relative to TP; assay type: ADME; details: hepg2, 7 h
[3] = Toxicity in zebrafish AB assessed as mortality at <12 uM measured at 72 hrs postfertilization; design: species or system Danio rerio; details: in vivo
[4] = test system: HepG2; test: Antitumor activity against human HepG2 cells xenografted in zebra fish AB assessed as tumor growth inhibition at 0.5 to 1 uM measured after 48 hrs by fluorescence microscopic analysis; assay type: functional, cell-based; details: dose 0.5-1 µM
[5] = test system: HepG2; test: Induction of apoptosis in human HepG2 cells assessed as necrotic cells at 75 nM measured after 48 hrs by Annexin V-FITC/PI double staining based flow cytometry analysis (Rvb= 0.13%); assay type: functional
[6] = Toxicity in zebrafish AB assessed as hatching rate at <12 uM measured at 72 hrs postfertilization; design: species or system Danio rerio; details: in vivo
[7] = test system: HepG2; test: Induction of mitochondrial membrane potential loss in human HepG2 cells assessed as proportion of cells with depolarized mitochondria at 100 nM measured after 48 hrs by JC-1 staining based flow cytometry analysis (Rvb= 9.1%); assay type: functional
[8] = test system: HepG2; test: Induction of apoptosis in human HepG2 cells assessed as late apoptotic cells at 75 nM measured after 48 hrs by Annexin V-FITC/PI double staining based flow cytometry analysis (Rvb= 2.89%); assay type: functional
[9] = test system: HepG2; test: Induction of apoptosis in human HepG2 cells assessed as live cells at 50 nM measured after 48 hrs by Annexin V-FITC/PI double staining based flow cytometry analysis (Rvb= 94.8%); assay type: functional
[10] = test system: HepG2; test: Induction of apoptosis in human HepG2 cells assessed as late apoptotic cells at 100 nM measured after 48 hrs by Annexin V-FITC/PI double staining based flow cytometry analysis (Rvb= 2.89%); assay type: functional
[11] = Toxicity in zebrafish AB assessed as increase in hatching rate at 0.05 to 2 uM measured at 72 hrs postfertilization; design: species or system Danio rerio; details: in vivo, dose 0.05-2 µM
[12] = Toxicity in zebrafish AB assessed as pericardial edema at 12 uM measured at 72 hrs postfertilization; design: species or system Danio rerio; details: in vivo
[13] = test system: MCF7; test: Cytotoxicity against human MCF7 cells assessed as inhibition of cell proliferation measured after 48 hrs by MTT assay; assay type: functional, cell-based; details: MCF7, 48 h
[14] = test system: PC-3; test: Cytotoxicity against human PC-3 cells assessed as inhibition of cell proliferation measured after 48 hrs by MTT assay; assay type: functional, cell-based; details: PC-3, 48 h
[15] = Toxicity in zebrafish AB assessed as increase in embryo malformation rate at 0.05 to 2 uM measured at 72 hrs postfertilization; design: species or system Danio rerio; details: in vivo, dose 0.05-2 µM
[16] = test system: PANC-1; test: Cytotoxicity against human PANC-1 cells assessed as inhibition of cell proliferation measured after 48 hrs by MTT assay; assay type: functional, cell-based; details: PANC-1, 48 h
[17] = Toxicity in zebrafish AB assessed as body length at 0.05 to 2 uM measured at 72 hrs postfertilization; design: species or system Danio rerio; details: in vivo, dose 0.05-2 µM
[18] = test system: HepG2; test: Induction of mitochondrial membrane potential loss in human HepG2 cells assessed as proportion of cells with hyperpolarized mitochondria at 100 nM measured after 48 hrs by JC-1 staining based flow cytometry analysis (Rvb= 80.9%); assay type: functional

CC(C)[C@]12O[C@H]1[C@@H]1O[C@]13[C@]1(O[C@H]1C[C@H]1C4=C(CC[C@@]13C)C(=O)OC4)[C@@H]2OC(=O)CCCCC[P+](c1ccccc1)(c1ccccc1)c1ccccc1.[Br-]
IC50 [1]: 254 nM | fold change (FC) [2]: 3 | Activity [3]: Non-Toxic | Activity [4]: Active | Activity [5]: 0.17% | Activity [6]: Non-Toxic | Activity [7]: 45.6% | Activity [8]: 7.47% | Activity [9]: 91.2% | Activity [10]: 12.1% | Activity [11]: Non-Toxic | Activity [12]: Toxic | IC50 [13]: 238 nM | IC50 [14]: 186 nM | Activity [15]: Non-Toxic | IC50 [16]: 349 nM | Activity [17]: Non-Toxic | Activity [18]: 54.4%
